Activity calls are given as the source filed them. The rule behind the calls is not given here.
What was measured:
[1] = Cytotoxicity against human HSF cells after 72 hrs by MTT assay; type: cell-based
[2] = Selectivity ratio of IC50 for human MCF7 cells to IC50 for human MCF7/ADR cells; type: functional
Bel7402/5-FU [3] = assay: Induction of apoptosis in human Bel7402/5-FU cells assessed as necrotic cells at 0.5 uM measured after 24 hrs by Annexin V-FITC/propidium iodide staining based flow cytometry (reference value: 0.137%); type: functional
Bel7402/5-FU [4] = assay: Cytotoxicity against human Bel7402/5-FU cells after 72 hrs by MTT assay; type: functional, cell-based
MCF7 = assay: Cytotoxicity against human MCF7 cells after 72 hrs by MTT assay; type: functional, cell-based; conditions: MCF7, 72 h
Bel7402/5-FU [5] = assay: Induction of apoptosis in human Bel7402/5-FU cells assessed as nuclear fragmentation at 0.5 to 2 uM measured after 24 hrs by Hoechst 33342/propidium iodide staining based fluorescence microscopy; type: functional, cell-based
[6] = Selectivity index, ratio of IC50 for human HSF cells to IC50 for human HCT15 cells; type: toxicity; conditions: HSF cells versus HCT15 cells, read-out: Ratio IC50
Bel7402/5-FU [7] = assay: Induction of apoptosis in human Bel7402/5-FU cells assessed as late apoptotic cells at 1 uM measured after 24 hrs by Annexin V-FITC/propidium iodide staining based flow cytometry (reference value: 8.05%); type: functional
Bel7402/5-FU [8] = assay: Cell cycle arrest in human Bel7402/5-FU cells assessed as accumulation at G1 phase at 0.5 uM measured after 24 hrs by propidium iodide staining based flow cytometry (reference value: 26.32%); type: functional
[9] = Selectivity ratio of IC50 for human […] cells to IC50 for human Bel7402/5-FU cells; type: functional
Bel7402/5-FU [10] = assay: Induction of apoptosis in human Bel7402/5-FU cells assessed as early apoptotic cells at 2 uM measured after 24 hrs by Annexin V-FITC/propidium iodide staining based flow cytometry (reference value: 2.8%); type: functional
[11] = Selectivity ratio of IC50 for human A549 cells to IC50 for human A549/TAX cells; type: functional
Bel7402/5-FU [12] = assay: Cell cycle arrest in human Bel7402/5-FU cells assessed as accumulation at G1 phase at 1 uM measured after 24 hrs by propidium iodide staining based flow cytometry (reference value: 26.32%); type: functional
Bel7402/5-FU [13] = assay: Inhibition of colony formation in human Bel7402/5-FU cells up to 4 uM measured after 10 days by giemsa staining based assay; type: functional, cell-based
NCI/ADR-RES = assay: Cytotoxicity against human MCF7/ADR cells after 72 hrs by MTT assay; type: functional, cell-based
Bel7402/5-FU [14] = assay: Induction of apoptosis in human Bel7402/5-FU cells assessed as viable cells at 2 uM measured after 24 hrs by Annexin V-FITC/propidium iodide staining based flow cytometry (reference value: 89%); type: functional; conditions: read-out: Activity
Bel7402/5-FU [15] = assay: Induction of apoptosis in human Bel7402/5-FU cells assessed as early apoptotic cells at 0.5 uM measured after 24 hrs by Annexin V-FITC/propidium iodide staining based flow cytometry (reference value: 2.8%); type: functional
MGC-803 [16] = assay: Potency index, ratio of shikonin IC50 to test compound IC50 for human MGC803 cells; type: functional
Bel7402/5-FU [17] = assay: Induction of apoptosis in human Bel7402/5-FU cells assessed as necrotic cells at 1 uM measured after 24 hrs by Annexin V-FITC/propidium iodide staining based flow cytometry (reference value: 0.137%); type: functional
A549 = assay: Cytotoxicity against human A549 cells after 72 hrs by MTT assay; type: functional, cell-based; conditions: A549, 72 h
Bel7402/5-FU [18] = assay: Induction of apoptosis in human Bel7402/5-FU cells assessed as late apoptotic cells at 2 uM measured after 24 hrs by Annexin V-FITC/propidium iodide staining based flow cytometry (reference value: 8.05%); type: functional
Bel7402/5-FU [19] = assay: Cell cycle arrest in human Bel7402/5-FU cells assessed as decrease in accumulation at G2/M phase at 0.25 to 1 uM measured after 24 hrs by propidium iodide staining based flow cytometry; type: functional
Bel7402/5-FU [20] = assay: Cell cycle arrest in human Bel7402/5-FU cells assessed as accumulation at G1 phase at 0.25 uM measured after 24 hrs by propidium iodide staining based flow cytometry (reference value: 26.32%); type: functional
Bel7402/5-FU [21] = assay: Induction of apoptosis in human Bel7402/5-FU cells measured after 24 hrs by Annexin V-FITC/propidium iodide staining based flow cytometry; type: functional, cell-based
HCT-15 [22] = assay: Potency index, ratio of shikonin IC50 to test compound IC50 for human HCT15 cells; type: functional
MGC-803 [23] = assay: Cytotoxicity against human MGC803 cells after 72 hrs by MTT assay; type: functional, cell-based; conditions: MGC-803, 72 h
Bel7402/5-FU [24] = assay: Induction of apoptosis in human Bel7402/5-FU cells assessed as necrotic cells at 2 uM measured after 24 hrs by Annexin V-FITC/propidium iodide staining based flow cytometry (reference value: 0.137%); type: functional
Bel7402/5-FU [25] = assay: Cell cycle arrest in human Bel7402/5-FU cells assessed as decrease in accumulation at S phase at 0.25 to 1 uM measured after 24 hrs by propidium iodide staining based flow cytometry; type: functional
HCT-15 [26] = assay: Cytotoxicity against human HCT15 cells after 72 hrs by MTT assay; type: functional, cell-based; conditions: HCT-15, 72 h
Bel7402/5-FU [27] = assay: Induction of apoptosis in human Bel7402/5-FU cells assessed as cell shrinkage at 0.5 to 2 uM measured after 24 hrs by Hoechst 33342/propidium iodide staining based fluorescence microscopy; type: functional
A549/TR = assay: Cytotoxicity against human A549/TAX cells after 72 hrs by MTT assay; type: functional, cell-based
Bel7402/5-FU [28] = assay: Induction of apoptosis in human Bel7402/5-FU cells assessed as early apoptotic cells at 1 uM measured after 24 hrs by Annexin V-FITC/propidium iodide staining based flow cytometry (reference value: 2.8%); type: functional
Bel7402/5-FU [29] = assay: Cell cycle arrest in human Bel7402/5-FU cells assessed as increase in accumulation at G1 phase measured after 24 hrs by propidium iodide staining based flow cytometry; type: functional
Bel7402/5-FU [30] = assay: Induction of apoptosis in human Bel7402/5-FU cells assessed as viable cells at 1 uM measured after 24 hrs by Annexin V-FITC/propidium iodide staining based flow cytometry (reference value: 89%); type: functional; conditions: read-out: Activity
Bel7402/5-FU [31] = assay: Induction of apoptosis in human Bel7402/5-FU cells assessed as late apoptotic cells at 0.5 uM measured after 24 hrs by Annexin V-FITC/propidium iodide staining based flow cytometry (reference value: 8.05%); type: functional
Bel7402/5-FU [32] = assay: Induction of apoptosis in human Bel7402/5-FU cells assessed as increase in ratio of Bax/Bcl2 level at 0.5 to 4 uM measured after 24 to 48 hrs by Western blot analysis; type: functional, cell-based
K562 [33] = assay: Cytotoxicity against human K562 cells after 72 hrs by MTT assay; type: functional, cell-based; conditions: K562, 72 h
Bel7402/5-FU [34] = assay: Induction of apoptosis in human Bel7402/5-FU cells assessed as viable cells at 0.5 uM measured after 24 hrs by Annexin V-FITC/propidium iodide staining based flow cytometry (reference value: 89%); type: functional; conditions: read-out: Activity
[35] = Cytotoxicity against human […] cells after 72 hrs by MTT assay; type: functional, cell-based
K562 [36] = assay: Potency index, ratio of shikonin IC50 to test compound IC50 for human K562 cells; type: functional

CCCCCCCCC(SC(=O)/C=C/c1ccccc1)c1cc(OC)c2c(c1OC)/C(=N/O)C=C/C2=N\O (stereo not given)
IC50 [1]: > 50 µM | Ratio IC50 [2]: 8.37 | Activity (Bel7402/5-FU [3]): 1.17% | IC50 (Bel7402/5-FU [4]): 0.29 µM | IC50 (MCF7): 11.1 µM | Activity (Bel7402/5-FU [5]): Active | selectivity ratio [6]: > 132 | Activity (Bel7402/5-FU [7]): 15.2% | Activity (Bel7402/5-FU [8]): 44.5% | Ratio IC50 [9]: 1.45 | Activity (Bel7402/5-FU [10]): 58.3% | Ratio IC50 [11]: 9.13 | Activity (Bel7402/5-FU [12]): 50.69% | inhibition (Bel7402/5-FU [13]): Active | IC50 (NCI/ADR-RES): 1.33 µM | viability at 2 µM (Bel7402/5-FU [14]): 10.7% | Activity (Bel7402/5-FU [15]): 22.1% | Ratio IC50 (MGC-803 [16]): 2 | Activity (Bel7402/5-FU [17]): 4.64% | IC50 (A549): 6.57 µM | Activity (Bel7402/5-FU [18]): 29.2% | Activity (Bel7402/5-FU [19]): Active | Activity (Bel7402/5-FU [20]): 35.56% | Activity (Bel7402/5-FU [21]): Dose-dependent effect | Ratio IC50 (HCT-15 [22]): 2 | IC50 (MGC-803 [23]): 0.79 µM | Activity (Bel7402/5-FU [24]): 1.7% | Activity (Bel7402/5-FU [25]): Active | IC50 (HCT-15 [26]): 0.38 µM | Activity (Bel7402/5-FU [27]): Active | IC50 (A549/TR): 0.72 µM | Activity (Bel7402/5-FU [28]): 32.2% | Activity (Bel7402/5-FU [29]): Dose-dependent effect | viability at 1 µM (Bel7402/5-FU [30]): 47.9% | Activity (Bel7402/5-FU [31]): 12.3% | Activity (Bel7402/5-FU [32]): Active | IC50 (K562 [33]): 0.46 µM | viability at 0.5 µM (Bel7402/5-FU [34]): 64.4% | IC50 [35]: 0.42 µM | Ratio IC50 (K562 [36]): 2

From ChEMBL document CHEMBL4480391, “Discovery and synthesis of sulfur-containing 6-substituted 5,8-dimethoxy-1,4-naphthoquinone oxime derivatives as new and potential anti-MDR cancer agents” (Eur J Med Chem, 2019)
